Data reported in US20250075218A1, “HIF1A OR GLUT1 INHIBITION IN INFLAMMATORY SKIN DISEASES” (New York University, priority 2023, published 2025).
Several values for one entry are separate records, joined by “and”; a condition that tells them apart may be missing. Identical values can stand only once. Entries after “also recorded” stand apart in the source; their conditions may differ. Like-named read-outs stand apart in the source and are kept apart here.

Legend:
[1] = system: imiquimod (IMQ) PsO murine model; assay: Imiquimod (IMQ) PsO murine model with topical inhibitor treatment; type: in vivo, mouse; conditions: for cutaneous Type 17 immunity: interventional treatment after establishment of inflammation at day 3 of IMQ; for Type 17 cytokines (Il17a, Il22, Il23a, Il1b, Tnfa): topical during the course of IMQ treatment; for cutaneous T cell numbers (dermal CD3+ cells) / epithelial (epidermal) thickness: topical from first day, during the course of IMQ treatment
Protocol: Murine models of psoriatic inflammation. Topical imiquimod application: For imiquimod studies, seven- to eight-week-old mice in telogen (resting phase of hair cycle) were anesthetized with isoflurane prior to hair removal and imiquimod treatment on dorsal skin. 50 mg of imiquimod cream (5%, Perrigo) was applied to shaved dorsal skin, and application was repeated up to six days as previously described (van der Fits et al., 2009). Intradermal rmIL-23 injection: For recombinant murine (rm) IL-23 studies, the ear pinnae in 8-week-old mice were intradermally injected with either rmIL-23 (500 ng in 20 μl of PBS, carrier-free, PeproTech) or PBS control for five days. Animal drug treatments. […] Murine skin immunofluorescence and image analyses. […] Nuclei were stained with DAPI. […] Data were analyzed using ImageJ software.

PsO lesional human skin = assay: Ex vivo culture of human PsO lesional biopsies, bulk RNA-seq
Source text: Therefore, an ex vivo “trial in a dish” system was devised to test the effects of HIF1α inhibition on PsO lesional human skin. Lesional biopsies were obtained from 5 PsO patients that were either therapy-naïve or non-responsive to biologic therapy (Table 3). […] Surgical foreskin discards were used as healthy control skin and subject to the same treatment regimens.
Human skin culture. 4 mm full-thickness punch biopsies from lesional psoriatic skin and healthy skin (foreskin) were cut into […], secured with matrigel in 24-well plate and cultured within a maximum of 24-hours after removal from the patient. Each biopsy piece was subjected to different treatment conditions: (1) DMSO vehicle, (2) 10 μM of BAY87-2243, and (3) 500 nM of calcipotriol and 5 μM of betamethasone dipropionate (standard of care). The tissue was cultured in 24-well plates in 500 μl of Dulbecco's Modified Eagle Medium (DMEM) with 10% Fetal Bovine Serum (FBS). After 24 hours of culture, tissues were flash-frozen in liquid nitrogen and stored in −80° C. until RNA extraction. Total RNA was extracted using the RNeasy Fibrous Tissue Mini Kit (Qiagen) per manufacturer's instructions. Libraries were generated with Ribo-Zero Plus rRNA Depletion Kit (Illumina) and sequenced on Novaseq 6000 system with 100-bp paired-end reads.
Low-input bulk-RNA sequencing of human and murine skin. For human studies, skin biopsies were flash-frozen in liquid nitrogen following culture and treatment modalities. […] Libraries were generated with Ribo-Zero Plus rRNA Depletion Kit (Illumina) and sequenced on Novaseq 6000 system with 100-bp paired-end reads. […] Reads were trimmed for adapter sequences using trimmomatic (version 0.36) in paired end mode with the minimal read length option set to 35 base pairs, trailing set to 5, and the sliding window set to 4:15. Sequencing reads were aligned to the mouse genome (mm10/GRCm38) and human genome (hg38) using the splice-aware STAR aligner (Dobin et al, 2013). […]

uninflamed skin = conditions: for epidermal HIF1α levels (K14+HIF1α+ cells): topical on uninflamed skin for six days
Protocol: To examine if HIF1α is sufficient to promote epithelial pathology in the absence of inflammation, a HIF1α activator, FG-4592, was used (Wu et al., 2016). […] Animal drug treatments. EdU pulse: Mice were injected intraperitoneally with EdU (50 μg/g) (Thermo Scientific) three hours prior to sacrifice. PIM HCl: Pimonidazole Hydrochloride (PIM HCl, hypoxyprobe) was injected intraperitoneally into mice (20 mg/kg) two hours prior to sacrifice. BAY 87-2243: BAY 87-2243 (2 mg/ml, Selleck Chemicals) was first dissolved in DMSO and then diluted in a water-based gel. This gel was topically applied to dorsal skin daily starting two days prior to imiquimod application and continuing in parallel with imiquimod application until analysis. Sodium Oxamate: Sodium oxamate (70 mg/ml, Cayman Chemicals) was first dissolved in H2O and then diluted in a water-based gel. This gel was topically applied to dorsal skin daily starting either on the first or fourth day of imiquimod application and continuing in parallel with imiquimod application until analysis. Syrosingopine: Syrosingopine (10 mg/ml, Cayman Chemicals) was first dissolved in DMSO and then diluted in a water-based gel. […] Sections were blocked and stained with primary and secondary fluorescence-conjugated antibody. […] Pimonidazole Hydrochloride (PIM HCl) was detected by pretreating slides with a mouse-on-mouse immunodetection kit (Vector Laboratories) and then staining with biotin-anti-PIM adduct antibodies as per the manufacturer's guidelines (Hypoxyprobe). Data were analyzed using ImageJ software. Epidermal thickness was quantified by measuring K14^+ thickness with an in-house ImageJ macro. Thickness of keratin 6 (K6) and glucose transporter 1 (Glut1) layer was quantified by measuring K6^+K14^+ and Glut1^+K14^+ thickness with an ImageJ macro. The number of CD3 and EdU positive cells was quantified using ImageJ software and normalized per dermis area and length of epidermis, respectively.

IMQ-treated murine skin = assay: Lactate Secretion Assay of ex vivo murine back skin culture; type: cell-based, mouse; conditions: 2-DG 50 mM, 24 hours culture
Protocol: To examine lactate levels in inflamed skin, full thickness biopsies of IMQ-treated or control skin were cultured for 24 hours, in the presence or absence of glycolysis inhibitor 2DG, and measured lactate in the culture supernatant (FIG. 13A). […] 4 mm full-thickness punch biopsies from IMQ-treated or healthy murine skin were secured with matrigel in 12-well plate and cultured for 24 hours in 400 μl of Dulbecco's Modified Eagle Medium (DMEM) with 10% Fetal Bovine Serum (FBS). For inhibitor studies, cultures were treated with 2-DG (50 mM). At the end of 24 hours, supernatant was collected, centrifuged at 1000 g to pellet debris, and stored in −80C until further use. Lactate was measured using the colorimetric L-Lactate Assay Kit (Abcam).

epidermal HIF1α = assay: Immunofluorescence of PsO lesions before and after etanercept; type: in vivo, human; conditions: n=10
Protocol: (§1) When compared to contralateral non-lesional skin, the PsO lesion was enriched for HIF1A, IL17RA, and IL17RC (FIGS. 3B and 8H). […] As a complementary analysis, HIF1α protein expression was measured in a cohort of 10 patients treated with etanercept (anti-TNFα) that achieved response (PASI 75 or greater) at 12 weeks (Table 2) (Stinco et al., 2019). […] Collectively, these analyses make a compelling argument for exuberant IL-17A signaling and subsequent HIF1α induction in fueling a pathological epithelial state that is resolved following successful biologic therapy, irrespective of cytokine target.
Human skin immunofluorescence and image analyses. Four-micron paraffin-embedded sections were stained either with hematoxylin and eosin or with Akoya Biosciences® Opal™ multiplex automation kit on a Leica BondRX® autostainer, according to manufacturers' instructions. Semi-automated image acquisition was performed on a Vectra® Polaris multispectral imaging system. After whole slide scanning at 20× the tissue was manually outlined to select fields for spectral unmixing using InForm® version 2.4.11 software from Akoya Biosciences.

PsO patients = assay: Clinical metrics of PsO patients over course of etanercept (anti-TNFα) therapy; type: in vivo, human; design: BSA: unit not given here
Protocol: as §1

[2] = BAY 87-2243 topical concurrent with IMQ, vs vehicle
[3] = vs vehicle, listed as MCT1/MCT4 inhibitor
[4] = treatment begins on day 3 of IMQ application, up to day 6, vs vehicle
[5] = Week 2 of etanercept, one line per individual patient
[6] = Week 6 of etanercept, one line per individual patient
[7] = Week 12 of etanercept, one line per individual patient

Cc1cc(-c2nc(-c3ccc(OC(F)(F)F)cc3)no2)nn1Cc1ccnc(N2CCN(C3CC3)CC2)c1 [BAY 87-2243]
epidermal thickness ([1]; BAY 87-2243 2 mg/ml gel topical daily from two days prior to and concurrent with IMQ, vs vehicle): diminished; also recorded: significantly reduced | dermal T cells (CD3+) ([1]; BAY 87-2243 topical concurrent with IMQ, vs control): reduction; also recorded: significantly lower numbers | inflammatory Keratin 6 expression (K6 thickness) [1, 2]: significantly reduced | proliferation (Ki67) [1, 2]: significantly reduced | genes associated with glycolytic metabolism, STAT3 activation and epithelial development/differentiation (PsO lesional human skin; PsO lesional skin, 10 μM, 24 hours, vs vehicle): strikingly downregulated | number of differentially expressed genes (DEGs) compared to vehicle control (PsO lesional human skin; PsO lesional skin, 24 hours in culture, FDR<0.05, 10 μM BAY87-2243, SoC 500 nM calcipotriol and 5 μM betamethasone dipropionate): 2921 | expression of lactate transporters SLC16A1 (MCT1) and SLC16A3 (MCT4) (PsO lesional human skin; human PsO lesional skin culture, 24 hours): significantly reduced | epidermal thickness (uninflamed skin; mouse, in vivo): not altered

CCOC(=O)Oc1c(OC)cc(C(=O)O[C@@H]2C[C@@H]3CN4CCc5c([nH]c6cc(OC)ccc56)[C@H]4C[C@@H]3[C@H](C(=O)OC)[C@H]2OC)cc1OC [syrosingopine]
cutaneous Type 17 immunity [1]: decrease | Type 17 cytokines (Il17a, Il22, Il23a, Il1b, Tnfa) [1]: sufficient to limit | cutaneous T cell numbers (dermal CD3+ cells) ([1]; vs vehicle): sufficient to limit | epithelial (epidermal) thickness ([1]; vs vehicle): sufficient to limit | cutaneous T cell numbers (dermal CD3+ cells) [1, 3]: diminished | epithelial (epidermal) thickness [1, 3]: diminished | epidermal thickness [1, 4]: decrease | dermal CD3+ cells ([1]; treatment begins on day 3 of IMQ application, vs vehicle, listed as MCT1/MCT4 inhibitor): diminished

O=CC[C@@H](O)[C@H](O)[C@H](O)CO [2DG, 2-Deoxy-D-glucose]
lactate in culture supernatant, IMQ-treated vs control skin (IMQ-treated murine skin): diminished | lactate in culture supernatant, IMQ-treated vs control skin (IMQ-treated murine skin; listed as 2-DG): lost

etanercept
cutaneous Type 17 cells (epidermal HIF1α; etanercept responsive patients): reduction | epidermal hyperplasia (epidermal thickness) (epidermal HIF1α; etanercept-responsive patients, post-treated vs pre-treated lesional skin): reduced epidermal hyperplasia | expression of (nuclear) epidermal HIF1α (epidermal HIF1α; post-treated vs pre-treated lesional PsO epidermis, responsive patients): lower expression; also recorded: reduced | BSA (PsO patients; [5]): 9 and 22 and 15 (2×) and 11 and 12 and 76 and 29 and 19 and 20 | Static Physician's Global Assessment (SPGA) (PsO patients; [5]): 3 (6×) and 2 (2×) and 4 (2×) | PASI (PsO patients; Week 2 of etanercept, one line per individual patient (Patient 28-40)): 9.5 and 3.9 and 8.1 and 9.4 and 14.3 and 31.5 and 17.4 and 18.8 and 10.7 and 10.8 | BSA (PsO patients; [6]): 8 (2×) and 4 and 15 and 11 and 39 and 25 and 13 and 18 and 16 | PASI (PsO patients; [6]): 7.4 and 2.7 and 4.8 and 8.4 and 4.4 and 15 and 6.6 and 12.3 and 8.2 and 4.5 | Static Physician's Global Assessment (SPGA) (PsO patients; [6]): 3 (3×) and 1 and 2 (6×) | BSA (PsO patients; [7]): 6 and 3 (2×) and 10 and 15 and 27 and 1 and 7 and 18 and 8 | PASI (PsO patients; [7]): 4.5 (2×) and 2.7 and 2.4 and 11.6 and 3.2 and 12 and 0 and 2 and 8.4 | Static Physician's Global Assessment (SPGA) (PsO patients; [7]): 2 (4×) and 1 (4×) and 3 (2×) | PASI response achieved (PsO patients; cohort of 10 patients, at 12 weeks): ≥ 75

NC(=O)C(=O)[O-].[Na+] [sodium oxamate]
cutaneous Type 17 immunity [1]: decrease | Type 17 cytokines (Il17a, Il22, Il23a, Il1b, Tnfa) [1]: sufficient to limit | cutaneous T cell numbers (dermal CD3+ cells) ([1]; vs vehicle): diminished; also recorded: sufficient to limit | epithelial (epidermal) thickness ([1]; vs vehicle): diminished; also recorded: sufficient to limit | epidermal thickness [1, 4]: decrease | dermal CD3+ cells ([1]; treatment begins on day 3 of IMQ application, vs vehicle): diminished

Cc1nc(C(=O)NCC(=O)O)c(O)c2ccc(Oc3ccccc3)cc12 [FG-4592]
epidermal HIF1α levels (K14+HIF1α+ cells) (uninflamed skin): effectively heightened | epidermal HIF1α levels (K14+HIF1α+ cells) (uninflamed skin; listed as FG-4985): increased
